The source made the active and inactive calls.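 Rule for the calls: active = compounds reducing bradykinin-triggered filopodia by more than 10% inhibition at 10 microM; inactive = the rest.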

This test concerns Swiss 3T3 bradykinin-induced filopodia, phalloidin imaging. The test is described as follows: inhibition of bradykinin-induced filopodia formation, orthogonal assay for Ras-related GTPase inhibitor project, imaging, 3T3 cells, bradykinin stimulation (AID 2418). Conditions: at 10 µM; hits give high values.
A word on the inhibition: it is the change of the read-out against control, counted positive when it falls. Take `Cc1ccc(C2CC(c3ccccc3)=NN2c2ccc(S(N)(=O)=O)cc2)cc1` (stereo not drawn): the inhibition was -11% (inactive).

For `Cc1cccc(C2CC(c3ccccc3)=NN2c2ccc(S(N)(=O)=O)cc2)c1` (stereo not drawn), the inhibition was 19%.

`COc1ccc(C2CC(c3ccccc3)=NN2c2ccc(S(N)(=O)=O)cc2)cc1` (stereo not drawn): the inhibition was 56%.

Values taken from PubChem BioAssay AID2418 (NMMLSC, 2010).
